Measurements published in patent US20250333702A1, “CELLS WITH INCREASED IMMUNO-REGULATORY PROPERTIES AND METHODS FOR THEIR USE AND MANUFACTURE” (The Children's Medical Center Corporation, priority 2015, published 2025).
Where a name gives a salt, the structure may show the parent alone.

Key:
Assay type in all cases: cell-based
IDO-1 = IDO-1 mRNA level (RT-qPCR) in CD34+ cells after ex vivo treatment with agent; settings: mRNA by RT-qPCR, normalized against untreated cells; human CD34+ cells, 24 hours at 37° C.
Procedure: (§1) Human CD34+ stem and progenitor cells isolated from mobilized peripheral blood from three donors were ex vivo treated in […]® (StemCell Technologies) for 24 hours at 37° C. with one or more exogenous agents. Following cell treatments, gross mRNA levels were normalized against gross mRNA levels from the untreated cells […]. Levels of PD-L1 or IDO-1 mRNA were quantified from PICOPURE® isolated mRNA (Life Technologies) using an Assay on Demand TAQMAN® RT-qPCR assay (Life Technologies).

[1] = test system: Human CD34+ stem and progenitor cells; assay: Viability of CD34+ cells after ex vivo treatment with agent; design: concentration or dose not given beside the values; settings: human CD34+ cells from mobilized peripheral blood, 24 hours at 37° C. with agent
PD-L1 (CD274) = assay: PD-L1 mRNA level (RT-qPCR) in CD34+ cells after ex vivo treatment with agent; settings: mRNA by RT-qPCR, normalized against untreated cells; human CD34+ cells, 24 hours at 37° C.
Procedure: as §1

Row | Molecule | IDO-1 fold change (IDO-1) | % Viability ([1]; Table 2) | % Viability ([1]; Table 1) | PD-L1 fold change (PD-L1 (CD274))
1 | Nc1ccc(C(=O)O)c(O)c1 [4-aminosalicylic acid] | 4.07 fold | 85.3% |  | 
2 | C[C@H]1C[C@H]2[C@@H]3CCC4=CC(=O)C=C[C@]4(C)[C@@]3(F)[C@@H](O)C[C@]2(C)[C@@]1(O)C(=O)CO [Betamethasone] |  |  | 86.8% | 4.16 fold
3 | CCC(=O)O[C@]1(C(=O)CCl)[C@@H](C)C[C@H]2[C@@H]3CCC4=CC(=O)C=C[C@]4(C)[C@@]3(F)[C@@H](O)C[C@@]21C [Clobetasol propionate] |  |  | 83% | 9.27 fold
4 | C[C@@H]1C[C@H]2[C@@H]3C[C@H](F)C4=CC(=O)C=C[C@]4(C)[C@@]3(Cl)[C@@H](O)C[C@]2(C)[C@H]1C(=O)COC(=O)C(C)(C)C [Clocortolone pivalate] |  |  | 84.9% | 8.64 fold
5 | CN(C)CCC=C1c2ccccc2C=Cc2ccccc21 [Cyclobenzaprine] | 4.65 fold | 72.7% |  | 
6 | CN[C@@H]1[C@H](O[C@H]2[C@H](O[C@H]3[C@H](O)[C@@H](O)[C@H](NC(=N)N)[C@@H](O)[C@@H]3NC(=N)N)O[C@@H](C)[C@]2(O)CO)O[C@@H](CO)[C@H](O)[C@H]1O [Dihydrostreptomycin sulfate] | 6.19 fold | 84.5% |  | 
7 | Nc1nc(F)nc2c1ncn2[C@@H]1O[C@H](CO)[C@@H](O)[C@@H]1O [Fludarabine] | 4.22 fold | 82.5% |  | 
8 | CC1(C)O[C@@H]2C[C@H]3[C@@H]4C[C@H](F)C5=CC(=O)C=C[C@]5(C)[C@@]4(F)[C@@H](O)C[C@]3(C)[C@]2(C(=O)CO)O1 [Fluocinolone acetonide] |  |  | 82.9% | 10.58 fold
9 | OCCN1CCN(CCCN2c3ccccc3Sc3ccc(C(F)(F)F)cc32)CC1 [Fluphenazine] | 14.19 fold | 86% | 86% | 7.58 fold
10 | Nc1ccn([C@@H]2O[C@H](CO)[C@@H](O)C2(F)F)c(=O)n1 [Gemcitabine] | 30.13 fold | 81.4% |  | 
11 | CNC(C)CCC=C(C)C.CNC(C)CCC=C(C)C.O=C(O)[C@@H](O)[C@H](O)[C@H](O)[C@@H](O)C(=O)O [Isometheptene mucate] | 6.98 fold | 83.7% |  | 
12 | N#Cc1ccc(C(c2ccc(C#N)cc2)n2cncn2)cc1 [Letrozole] | 4.38 fold | 81.3% |  | 
13 | NC(=O)N/N=C/c1ccc([N+](=O)[O-])o1 [Nitro fural] |  |  | 87.2% | 10.28 fold
14 | CNCCCC1c2ccccc2C=Cc2ccccc21 [Protriptyline] | 5.74 fold | 79.4% |  | 
15 | Cc1scc2c1N(C(=O)CN1CCN(C)CC1)c1ccccc1NC2=O [Telenzepine] | 4.82 fold | 88.9% |  | 
16 | C=CC(N)CCC(=O)O (stereo not drawn) [Vigabatrin] |  |  | 67% | 16.76 fold
17 | Tyrphostin AG 835 |  |  | 61.3% | 32.57 fold
